# Measurements reported in US6432662B1, “Assay of peroxidase activity” (Pierce Chemical Company, priority 1999, dated 2002).
# Legend:
# SA-HRP = SA-HRP (Armoracia rusticana, UniProt P00433); assay: Dot blot application of water soluble azine enhancers (Example 8); type: biochemical, horseradish
# [1] = target: horseradish peroxidase labeled streptavidin (SA-HRP) (Armoracia rusticana, UniProt P00433); assay: Blot application comparing enhancer working solutions (Example 7); type: biochemical; details: after the 30 minute reexposure, enhancer: 1c […] (present invention) or 52 μM (low), 1b 52 μM, 3 13.5 μM
# horseradish peroxidase labeled streptavidin (SA-HRP), sequence (P00433 31-338 limits assumed): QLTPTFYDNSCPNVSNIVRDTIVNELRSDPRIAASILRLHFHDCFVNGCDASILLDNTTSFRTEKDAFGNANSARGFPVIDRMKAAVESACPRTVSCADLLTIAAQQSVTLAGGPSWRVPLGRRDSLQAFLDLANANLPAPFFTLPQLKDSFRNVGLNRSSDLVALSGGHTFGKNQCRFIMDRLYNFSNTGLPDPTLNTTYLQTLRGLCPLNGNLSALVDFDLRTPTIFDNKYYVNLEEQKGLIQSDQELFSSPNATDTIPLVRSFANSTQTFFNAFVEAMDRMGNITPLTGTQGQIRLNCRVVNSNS
# horseradish peroxidase labeled streptavidin (SA-HRP), sequence (P22629 25-183 partner): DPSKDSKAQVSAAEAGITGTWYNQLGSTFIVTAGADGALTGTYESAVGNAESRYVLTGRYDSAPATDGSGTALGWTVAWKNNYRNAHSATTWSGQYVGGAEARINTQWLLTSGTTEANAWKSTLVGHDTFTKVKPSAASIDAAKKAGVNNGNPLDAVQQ
# [2] = 50 μM enhancer with 1 mM Sodium Luminol
# [3] = […] enhancer with 5 mM Sodium Luminol
# SA-HRP, sequence (P00433 31-338 limits assumed): as the sequence (P00433 31-338 limits assumed) above
# SA-HRP, sequence (P22629 25-183 partner): as the sequence (P22629 25-183 partner) above
Substance,Net Relative Intensity at 10 pg SA-HRP (SA-HRP; [2]),Net Relative Intensity at 100 pg SA-HRP (SA-HRP; [2]),Net Relative Intensity at 10 pg SA-HRP (SA-HRP; [3]),Net Relative Intensity at 100 pg SA-HRP (SA-HRP; [3]),Relative Intensity 2 pg SA-HRP [1],Relative Intensity 5 pg SA-HRP [1],Relative Intensity 20 pg SA-HRP [1]
2-chloro-10 (3 trimethyl amino propyl)-phenothiazonan bromide [Azine Enhancer 1d],0,0,"225,632","311,048",,,
Phenylindophenol/indophenol [Phenolic Enhancer 3],,,,,0,"106,776","598,072"
